Reference: article PMC3263372 (Chembiochem, 2011)
“Also recorded” adds a separate entry of the source. Square brackets hold non-standard residues; d marks the D form. Peptide text beside a SMILES is read from it. β3hW = N[C@H](CC(=O)O)Cc1c[nH]c2ccccc12; β3hR = N=C(N)NCCC[C@H](N)CC(=O)O; β3hE = N[C@@H](CCC(=O)O)CC(=O)O; β3hQ = NC(=O)CC[C@H](N)CC(=O)O; β3hD = NC(CC(=O)O)CC(=O)O; β3hA = C[C@H](N)CC(=O)O

Experiments:
Mcl-1 = Mcl-1 (Homo sapiens, UniProt Q07820, A193S/E173D/K208R/M199L/R201E/S202A/S206G/T196S/T205A); assay: Solution competition SPR; assay type: binding, human/mouse chimeric; conditions: for affinity for Mcl-1: SPR, in words
Bcl-w = target: T1, Bcl-w (Homo sapiens, UniProt Q92843, A128E/C29S); assay: Solution competition SPR; assay type: binding
T1 sequence (Q92843 1-164 C29S/A128E limits assumed): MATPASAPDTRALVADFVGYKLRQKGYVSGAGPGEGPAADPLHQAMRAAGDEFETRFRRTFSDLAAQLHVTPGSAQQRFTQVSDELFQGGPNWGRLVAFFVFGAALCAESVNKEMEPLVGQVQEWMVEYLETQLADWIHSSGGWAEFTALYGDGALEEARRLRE

Bcl-2 = Bcl-2 (Homo sapiens, UniProt P10415); assay: Solution competition SPR; assay type: binding
Bcl-xL [1] = target: T2, Bcl-xL (Homo sapiens, UniProt Q07817); assay: Solution competition SPR; assay type: binding; conditions: for affinity for Bcl-xL: SPR, in words
pro-survival proteins = conditions: ref [37]; cited from earlier work
Bcl-xL [2] = target: T2, Bcl-xL; conditions: preliminary studies; ref [14]; cited from earlier work
[3] = ref [14]; cited from earlier work

T2 sequence (Q07817 1-209 limits assumed): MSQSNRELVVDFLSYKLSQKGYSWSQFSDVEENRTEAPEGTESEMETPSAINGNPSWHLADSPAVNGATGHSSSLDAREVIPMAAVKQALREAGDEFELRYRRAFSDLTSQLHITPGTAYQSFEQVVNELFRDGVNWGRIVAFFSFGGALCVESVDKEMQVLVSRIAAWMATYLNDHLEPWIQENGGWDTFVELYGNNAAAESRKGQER
Mcl-1, sequence (Q07820 171-327 E173D/A193S/T196S/M199L/R201E/S202A/T205A/S206G/K208R limits assumed): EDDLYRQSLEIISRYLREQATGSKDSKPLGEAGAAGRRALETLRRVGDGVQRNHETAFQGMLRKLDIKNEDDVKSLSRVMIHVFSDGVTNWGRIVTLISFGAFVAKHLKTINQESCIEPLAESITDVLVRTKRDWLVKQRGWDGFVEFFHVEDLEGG
Bcl-2, sequence (P10415 1-217 limits assumed, species assumed): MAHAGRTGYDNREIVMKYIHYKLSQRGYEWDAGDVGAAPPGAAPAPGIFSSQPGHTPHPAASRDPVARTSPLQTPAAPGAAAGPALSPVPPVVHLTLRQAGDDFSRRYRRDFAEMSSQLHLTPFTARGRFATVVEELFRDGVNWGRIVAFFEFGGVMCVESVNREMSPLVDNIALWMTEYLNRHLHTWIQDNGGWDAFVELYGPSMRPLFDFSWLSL

Structure (SMILES): CC[C@H](C)[C@H](NC(=O)[C@H](CCC(=O)O)NC(=O)[C@H](CCCNC(=N)N)NC(=O)[C@H](C)NC(=O)[C@H](Cc1c[nH]c2ccccc12)NC(=O)[C@H](CCC(N)=O)NC(=O)[C@H](CCC(=O)O)NC(=O)[C@H](CCC(=O)O)NC(C)=O)C(=O)NCC(=O)N[C@@H](C)C(=O)N[C@@H](CCC(N)=O)C(=O)N[C@@H](CC(C)C)C(=O)N[C@@H](CCCNC(=N)N)C(=O)N[C@@H](CCCNC(=N)N)C(=O)N[C@@H](CCSC)C(=O)N[C@@H](C)C(=O)N[C@@H](CC(=O)O)C(=O)N[C@@H](CC(=O)O)C(=O)N[C@@H](CC(C)C)C(=O)N[C@@H](CC(N)=O)C(=O)N[C@@H](C)C(=O)N[C@@H](CCC(N)=O)C(=O)N[C@@H](Cc1ccc(O)cc1)C(=O)N[C@@H](CCC(=O)O)C(=O)N[C@@H](CCCNC(=N)N)C(=O)N[C@@H](CCCNC(=N)N)C(N)=O [α-peptide 1]
- IC50 (Mcl-1): 0.01 µM
- IC50 (Bcl-w): 0.013 µM
- IC50 (Bcl-2): 0.005 µM
- IC50 (Bcl-xL [1]): 0.018 µM
- binding to all pro-survival proteins (pro-survival proteins): promiscuous binder capable of engaging all pro-survival proteins with high affinity

Structure (SMILES): CC[C@H](C)[C@H](NC(=O)C[C@H](CCC(=O)O)NC(=O)[C@H](CCCNC(=N)N)NC(=O)[C@H](C)NC(=O)C[C@H](Cc1c[nH]c2ccccc12)NC(=O)[C@H](CCC(N)=O)NC(=O)[C@H](CCC(=O)O)NC(=O)[C@H](CCC(=O)O)NC(C)=O)C(=O)NCC(=O)N[C@@H](C)C(=O)N[C@@H](CCC(N)=O)CC(=O)N[C@@H](CC(C)C)C(=O)N[C@@H](CCCNC(=N)N)C(=O)N[C@@H](CCCNC(=N)N)CC(=O)N[C@@H](CCSC)C(=O)N[C@@H](C)C(=O)N[C@@H](CC(=O)O)C(=O)N[C@@H](CC(=O)O)CC(=O)N[C@@H](CC(C)C)C(=O)N[C@@H](CC(N)=O)C(=O)N[C@@H](C)CC(=O)N[C@@H](CCC(N)=O)C(=O)N[C@@H](Cc1ccc(O)cc1)C(=O)N[C@@H](CCC(=O)O)C(=O)N[C@@H](CCCNC(=N)N)CC(=O)N[C@@H](CCCNC(=N)N)C(N)=O [α/β-peptide 2]
- binding to Bcl-xL (Bcl-xL [2]): bound tightly
- affinity for Mcl-1 (Mcl-1): does not bind tightly to Mcl-1; also recorded: low affinity; also recorded: relatively weak binding
- resistance to proteolytic degradation [3]: significant resistance to proteolytic degradation
- affinity for Bcl-xL (Bcl-xL [1]): strong binding; also recorded: high affinity

Structure (SMILES): CC[C@H](C)[C@H](NC(=O)C[C@H](CCC(=O)O)NC(=O)[C@H](CCCNC(=N)N)NC(=O)[C@H](C)NC(=O)C[C@H](Cc1c[nH]c2ccccc12)NC(C)=O)C(=O)NCC(=O)N[C@@H](C)C(=O)N[C@@H](CCC(N)=O)CC(=O)N[C@@H](CC(C)C)C(=O)N[C@@H](CCCNC(=N)N)C(=O)N[C@@H](CCCNC(=N)N)CC(=O)N[C@@H](CCSC)C(=O)N[C@@H](C)C(=O)N[C@@H](CC(=O)O)C(=O)N[C@@H](CC(=O)O)CC(=O)N[C@@H](CC(C)C)C(=O)N[C@@H](CC(N)=O)C(=O)N[C@@H](C)CC(=O)N[C@@H](CCC(N)=O)C(=O)N[C@@H](Cc1ccc(O)cc1)C(=O)N[C@@H](CCC(=O)O)C(N)=O [α/β-peptide 3] (Ac-[β3hW]AR[β3hE]IGA[β3hQ]LR[β3hR]MAD[β3hD]LN[β3hA]QYE-NH2; N-terminus assumed)
- affinity for Mcl-1 (Mcl-1): low affinity
- affinity for Bcl-xL (Bcl-xL [1]): high affinity
